From ChEMBL document CHEMBL1127701, “Antineoplastic agents. 278. Isolation and structure of axinastatins 2 and 3 from a western Caroline Island marine sponge” (1994)
In brackets after ≈: the same amount, converted by molar mass. Where a SMILES comes first, the peptide text is derived from it.

Columns and labels:
Format in all cases: functional
A498 = test: Tested for cytostatic activity against renal A498 cell line; settings: Homo sapiens
KM-20L2 = test: Tested for cytostatic activity against colon KM20L2 cell line; settings: Homo sapiens
NCI-H460 = test: Tested for cytostatic activity against lung-NSC […] cell line; settings: Homo sapiens
SF-295 = test: Tested for cytostatic activity against CNS SF-295 cell line; settings: Homo sapiens
SK-MEL-5 = test: Tested for cytostatic activity against melanoma SK-MEL-5 cell line; settings: Homo sapiens
OVCAR-3 = test: Tested for cytostatic activity against ovarian OVCAR-3 cell line; settings: Homo sapiens
P388 = test: Tested for in vitro cytotoxicity against the murine leukemia P388 cell line; settings: Mus musculus, read-out: ED50 (the source's name)

GI50 (NCI-H460)	GI50 (SK-MEL-5)	GI50 (OVCAR-3)	Structure (SMILES)	GI50 (A498)	GI50 (KM-20L2)	GI50 (SF-295)	EC50 (P388)
0.033 µg/mL (≈ 0.0423 µM)	0.012 µg/mL (≈ 0.0154 µM)	0.0072 µg/mL (≈ 0.00922 µM)	CC[C@H](C)[C@@H]1NC(=O)[C@H](Cc2ccccc2)NC(=O)[C@@H]2CCCN2C(=O)[C@H](CC(N)=O)NC(=O)[C@H](C(C)C)NC(=O)[C@@H]2CCCN2C(=O)[C@H](CC(C)C)NC1=O (cyclo(FILPVNP))	0.11 µg/mL (≈ 0.141 µM)	0.055 µg/mL (≈ 0.0704 µM)	0.18 µg/mL (≈ 0.23 µM)	–
0.19 µg/mL (≈ 0.248 µM)	0.068 µg/mL (≈ 0.0887 µM)	0.058 µg/mL (≈ 0.0756 µM)	CC(C)C[C@@H]1NC(=O)[C@H](C(C)C)NC(=O)[C@H](Cc2ccccc2)NC(=O)[C@@H]2CCCN2C(=O)[C@H](CC(N)=O)NC(=O)[C@H](C(C)C)NC(=O)[C@@H]2CCCN2C1=O (cyclo(FVLPVNP))	0.38 µg/mL (≈ 0.495 µM)	0.23 µg/mL (≈ 0.3 µM)	0.35 µg/mL (≈ 0.456 µM)	0.02 µg/mL (≈ 0.0261 µM)
